Test results from US10285967B2, “Monoacylglycerols for use in conjunction with a lipase inhibitor and/or diets low in fat and/or calories” (NESTEC S.A., priority 2013, dated 2019).

Key:
[1] = lipid maldigestion or malabsorption rat model (XENICAL-induced), EPA level in red blood cell lipids; assay type: in vivo; conditions: FIG. 2; for level of EPA incorporated in red blood cells: rats, day 7, with XENICAL (ORLISTAT)
Description: The concept was tested in a lipid maldigestion or malabsorption rat model. The maldigestion or malabsorption condition was obtained using XENICAL® (ORLISTAT), a pancreatic and gastric lipases inhibitor (tetrahydrolipstatin; see FIG. 7). Rats were fed during 21 days with long-chain polyunsaturated fatty acid (LC-PUFA) supplements containing mainly eicosapentaenoic (EPA) acid. Fish oil was used as a source of triacylglycerols, and different EPA glycerides were evaluated. XENICAL® (ORLISTAT) was given at a level sufficient to decrease lipid absorption by 40%. A group receiving fish oil without XENICAL® (ORLISTAT) was used as a positive control. At different time intervals (D3, D7, D14 and D21), the fatty acid profiles of red blood cell and plasma lipids were determined. At the end of the experiment, the fatty acid profiles of different tissues were determined.
The main objective was to follow the level of EPA in red blood cell and plasma lipids. The main comparison evaluated was the difference in EPA level between the group receiving EPA-containing sn-1(3) MAG (FIG. 1) in combination with XENICAL® (ORLISTAT) and the […] (fish oil+XENICAL® (ORLISTAT)).
This comparison corroborates the validity of the model.

[2] = clinical study of EPA delivery under lipid maldigestion induced by XENICAL (ORLISTAT); assay type: in vivo, human
Description: This clinical study compared the efficacy of sn-1(3) MAG and fish oil (TAG) in delivering EPA in humans under lipid maldigestion conditions induced by XENICAL® (ORLISTAT). The comparison was tested in volunteers having a BMI of 37-40 kg/m2 and treated with XENICAL® (ORLISTAT) to induce lipid maldigestion or not treated with XENICAL® (ORLISTAT). The primary objective was to assess accretion of EPA in erythrocytes over 21 days when consumed as fish oil (TAG) or sn-1(3) MAG. The secondary objectives were to assess accretion of EPA in plasma over 21 days and also to assess the pharmacokinetics of EPA after an acute dose either in the form of sn-1(3) MAG or TAG (AUC in chylomicrons over 10 hours postprandial).

Structure (SMILES) | EPA incorporation in red blood cells ([1]; rats fed fish oil with XENICAL (ORLISTAT) vs fish oil without, day 7) | carrier for EPA compared with fish oil (TAG) ([2]; obese subjects treated with XENICAL (ORLISTAT)) | chronic effect: accretion of EPA in erythrocytes after 21 days ([2]; obese volunteers, with XENICAL (ORLISTAT), compared with fish oil + XENICAL, p=0.0001, FIG. 5) | chronic effect: accretion of EPA in plasma after 21 days ([2]; obese volunteers, with XENICAL (ORLISTAT), relative to fish oil + XENICAL, p=0.0003, FIG. 6) | level of EPA incorporated in red blood cells ([1]; compared with fish oil + XENICAL group, all P values lower than 0.05) | level of EPA incorporated in red blood cells ([1]; compared with fish oil group without XENICAL)
CCCCCCCCCCC[C@@H](C[C@@H]1OC(=O)[C@H]1CCCCCC)OC(=O)[C@H](CC(C)C)NC=O [XENICAL® (ORLISTAT), tetrahydrolipstatin, reference compound] | decreases EPA incorporation in red blood cells | – | – | – | – | –
CC/C=C\C/C=C\C/C=C\C/C=C\C/C=C\CCCC(=O)OCC(O)CO (stereo not drawn) [sn-1(3) MAG, sn-1(3)-monoeicosapentaenoylglycerol] | – | better carrier for EPA than fish oil | statistically significant | statistically significant | statistically higher | even higher than the fish oil group
